Assay results: patent US12622910B2, “Inhibitors of Bruton's tyrosine kinase and methods of their use” (Janssen Pharmaceutica NV, priority 2021, dated 2026)
Where two headings read alike, the source gives them in different places. Marks after values point to notes of the source that are not given here.

Assays:
[1] = Plasma protein binding, equilibrium dialysis; assay type: in vitro ADME
Method: Additional Data on Preclinical PK Profile—Protein binding of the compound of Formula (III) was studied using an equilibrium dialysis method in plasma from human, cynomolgus monkey, beagle dog, Sprague Dawley rat, CD-1 mouse, and guinea pig at 0.25, 2.5, and 25 μM. […] In human and monkey, the plasma protein binding was concentration dependent. […] Free fraction of the compound of Formula (III) in liver microsomes from various species ranged from 75.1% to 87.9% at 0.25 mg/mL and from 58.9% to 86.5% at 1.0 mg/mL (Table 17). […] In hepatocytes, the compound of Formula (III) turnover followed a similar trend, with T1/2 ranging from 75.3 minutes in monkey to 278.1 minutes in human.

[2] = Preclinical PK, oral and IV; assay type: in vivo, rat; settings: for Cmax / Tmax / AUC(0-inf): po, 5 mg/kg; for AUC(0-inf): read-out: Oral AUCinf
BTK = BTK (Homo sapiens, UniProt Q06187); assay: Mechanistic PK/BTKO model and simulations; design: measuring free BTK levels in peripheral blood mononuclear cells (PBMCs) and calculating % BTKO; endogenous in cells; host or cells: human PBMCs, lysed after isolation from whole blood
Description: A mechanistic covalent binding model (FIG. 2) was used to describe the receptor occupancy of compound of Formula (III). The equations describing the binding model are shown in equations 1-5.
where symbols represent the free BTK protein concentration (BTK), drug-BTK complex (BTKb) and covalently bound complex (BTKi). The rate constants in the equations include zero-order rate of BTK synthesis (ksyn); the first-order rate of free BTK degradation (kdegf); the first-order rate of covalently bound complex degradation (Kdegi); association rate drug-BTK binding (kon); dissociation rate drug-BTK binding (koff). C1 is the concentration in central compartment. BTK0 is the baseline value of BTK. […]
In order to refine predictions of % BTKO after multiple dosing for the MAD cohorts and to help select a starting dose for the subsequent first-in-patient oncology study, a prior mechanistic PK/PD model based on in vitro and in vivo BTKO data was updated with clinical PK/BTKO data collected from SAD cohorts of the FIH study. […] The evaluated dosing regimens included 12 mg, 36 mg, 70 mg, 100 mg, 140 mg, 200 mg QD dose. […]
Once MAD data were available, the semi-mechanistic PK/PD model was updated with the acquired data from SAD and MAD cohorts. All covariate effects in the popPK analysis were evaluated on clearance from the central compartment (CL/F) only, except for body weight, food effect, and drug formulation. […]

[3] = CD-1, mouse, read-out: % Free in plasma
[4] = beagle, dog, read-out: % Free in plasma
[5] = cynomolgus monkey, read-out: % Free in plasma
[6] = rat, in vivo, 5 mg/kg crystalline suspension PO (0.5% HPMC)
[7] = rat, in vivo, 5 mg/kg solution PO (20% HPβCD)

BTK, sequence (Q06187 whole entry): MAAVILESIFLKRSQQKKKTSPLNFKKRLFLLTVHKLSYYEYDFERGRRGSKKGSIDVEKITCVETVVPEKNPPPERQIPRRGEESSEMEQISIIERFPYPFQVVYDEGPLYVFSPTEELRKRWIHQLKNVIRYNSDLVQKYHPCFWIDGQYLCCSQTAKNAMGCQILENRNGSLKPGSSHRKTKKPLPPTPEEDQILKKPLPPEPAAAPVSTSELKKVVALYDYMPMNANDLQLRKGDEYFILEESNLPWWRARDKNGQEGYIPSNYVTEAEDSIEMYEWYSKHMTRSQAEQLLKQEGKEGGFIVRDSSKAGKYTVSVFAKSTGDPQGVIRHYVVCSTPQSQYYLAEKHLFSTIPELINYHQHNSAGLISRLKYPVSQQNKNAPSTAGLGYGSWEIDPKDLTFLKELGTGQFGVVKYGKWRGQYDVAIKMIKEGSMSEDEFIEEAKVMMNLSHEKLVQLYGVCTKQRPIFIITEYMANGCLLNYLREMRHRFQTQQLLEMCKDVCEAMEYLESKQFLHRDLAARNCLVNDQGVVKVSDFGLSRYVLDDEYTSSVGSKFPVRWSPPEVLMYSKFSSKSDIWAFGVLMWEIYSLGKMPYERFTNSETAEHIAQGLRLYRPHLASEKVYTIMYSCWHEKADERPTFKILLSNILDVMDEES

`C=CC(=O)N[C@H]1CCC[C@H]1NC(=O)c1sc2nccc3c2c1NC(=O)N3c1cnc(CC(C)C)cc1C` (atropisomer, axis not shown) [compound of Formula (III), N-((1R,2S)-2-Acrylamidocyclopentyl)-5-(S)-(6-isobutyl-4-methylpyridin-3-yl)-4-oxo-4,5-dihydro-3H-1-thia-3,5,8-triazaacenaphthylene-2-carboxamide] gave a fraction unbound at 0.25 μM [1, 3] of 0.0192, a fraction unbound at 2.5 μM ([1]; CD-1, mouse, 2.5 μM, read-out: % Free in plasma) of 0.024 and a fraction unbound at 25 μM [1, 3] of 0.0335. For the same compound, the fraction unbound at 0.25 μM [1, 4] was 0.0688, the fraction unbound at 25 μM [1, 4] was 0.0685 and the fraction unbound at 0.25 μM [1, 5] was under 0.004. The fraction unbound at 25 μM [1, 5] was 0.0532, the fraction unbound at 1 μM ([1]; female, Wistar, rat, read-out: free fraction in plasma) was 0.0754 and the F ([2]; 5 mg/kg crystalline suspension PO (0.5% HPMC)) was 41 ± 19^b %. For the same compound, the F ([2]; 5 mg/kg solution PO (20% HPβCD)) was 28 ± 6^a; %, the clearance ([2]; rat, in vivo, iv) was 55 ± 2 mL/min/kg and the half-life ([2]; rat, in vivo, iv, read-out: IV T1/2 (converted)) was 24 min. The Vd ([2]; rat, in vivo, iv, read-out: Vss) was 1.9 ± 0.2 L/kg, the Cmax [2, 6] was 133 ± 53 ng/mL and the Tmax [2, 6] was 102 ± 36 min. It also gave an AUC(0-inf) [2, 6] of 626 ± 290 ng·h/mL, a Cmax [2, 7] of 189 ± 81 ng/mL and a Tmax [2, 7] of 30 min. The AUC(0-inf) [2, 7] was 425 ± 96 ng·h/mL, the “kon, PD model estimate” value (BTK; model (A), SAD cohorts 2-5) was 0.0447 l/nM/h and the “kon, PD model estimate” value (BTK; model (B), all SAD and MAD data) was 0.0509 l/nM/h.
